Measurements: article PMC3886529, “Structural Features of the Peptide Homologous to 6-25 Fragment of Influenza A PB1 Protein” (International Journal of Peptides, 2013)
Ends that are not written are not given here.

How the values were obtained:
PB1 (6-25) [1] = target: T1, PB1 (6-25) (Influenza A virus, UniProt O89749); format: binding
PB1 (6-25) [2] = target: T1, PB1 (6-25); format: physicochemical
[3] = format: physicochemical; details: diluted to 0.2 mM, negative staining (phosphotungstic acid, pH 7.4), 80 kV
PB1 (6-25) [4] = target: T1, PB1 (6-25); format: physicochemical; remark: listed apart in the source
PB1 (6-25) [5] = target: T1, PB1 (6-25); assay: biochemical; format: binding
PB1 (6-25) [6] = target: T1, PB1 (6-25); format: physicochemical; details: pH 7.4
[7] = Circular dichroism, secondary structure of PB1 (6-25) in solution; format: physicochemical; details: CD 194–320 nm, 1 mg/mL solution
Method: Circular dichroism (194–320 nm) was measured on PB1 (6-25) 1 mg/mL solution. Spectra were analyzed with CDNN software.

| Substance | effect on antiparallel beta-sheets of PB1 (6-25) (PB1 (6-25) [1]) | diameter of aggregates (PB1 (6-25) [2]) | formation of structured aggregates, single peptide alone [3] | reversibility of insoluble aggregates (PB1 (6-25) [4]) | Kd (PB1 (6-25) [5]) [µM] | characteristic linear size of structured aggregates (PB1 (6-25) [6]) | alpha-helix content ([7]; CDNN software) [%] | antiparallel beta-sheet content ([7]; CDNN software) [%] | beta-turns content ([7]; CDNN software) [%] | random coil structure content ([7]; CDNN software) [%] | secondary structure in solution ([7]; compared with the molecular dynamics model) |
| --- | --- | --- | --- | --- | --- | --- | --- | --- | --- | --- | --- |
| TLLFLKVP-OH [PB1 (6-13), TLLFLKVP] | contributed to increase antiparallel beta-sheets | 500–1000 nm | not in the samples containing either one of the peptides | could not reverse into soluble forms after dilution or heating | 200 to 1000 | about 500 nm |  |  |  |  |  |
| TLLFLKVPAQNAISTTFPYT [PB1 (6-25), peptide comprised of amino acid residues 6-25 of influenza virus PB1] |  |  | not in the samples containing either one of the peptides |  |  |  | 8 | 30 | 25 | 37 | structure similar to the described model of beta-hairpin |
